Where a name gives a salt, the structure may show the parent alone.
The molecules below were run against T1, transglutaminase (Streptomyces mobaraensis, UniProt P81453) (assay: Experimental Example 1: accelerated test by high temperature storage, transglutaminase activity by hydroxamate method). Details: conclusion of Experimental Example 1; additive 10 wt%, 44°C 24 hr.
T1 sequence (P81453 77-407): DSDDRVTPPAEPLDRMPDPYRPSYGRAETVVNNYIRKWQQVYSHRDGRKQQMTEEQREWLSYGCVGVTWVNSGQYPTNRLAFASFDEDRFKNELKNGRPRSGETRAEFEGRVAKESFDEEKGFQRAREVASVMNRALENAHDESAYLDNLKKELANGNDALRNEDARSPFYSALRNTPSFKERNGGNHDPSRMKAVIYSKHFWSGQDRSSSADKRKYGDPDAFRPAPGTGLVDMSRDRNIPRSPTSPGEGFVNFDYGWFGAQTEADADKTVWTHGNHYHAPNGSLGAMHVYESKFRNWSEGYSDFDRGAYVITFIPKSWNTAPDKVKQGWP
Type: physicochemical, microorganism
Protocol: The enzyme activity of transglutaminase can be measured and calculated by, for example, the hydroxamate method. That is, benzyloxycarbonyl-L-glutaminyl glycine is reacted with hydroxylamine as a substrate to form an iron complex of hydroxamic acid formed in the aforementioned reaction in the presence of trichloroacetic acid, the absorbance at 525 nm is measured, and the amount of hydroxamic acid produced is determined from the calibration curve, whereby the enzyme activity can be calculated.
The stability of transglutaminase in each liquid preparation of the above-mentioned Examples 1 - 5 and Comparative Example 1 was evaluated by an accelerated test by high temperature storage as follows.
Respective liquid preparations of the above-mentioned Examples 1 - 5 and Comparative Example 1 were stored at 4°C and 44°C for 24 hr, and the transglutaminase activity in the liquid preparation was measured by the above-mentioned hydroxamate method.
A liquid preparation obtained by dissolving only transglutaminase in a phosphate buffer was used as a control and treated in the same manner.
For `O=C(O)C1CCCN1` (stereo not drawn) [proline, pyrrolidine-2-carboxylic acid], the “transglutaminase stabilizing effect in a liquid preparation” value (shortened to “transglutaminase stabilizing effect”) was “has a transglutaminase stabilizing effect”. `N[C@@H](CCC(=O)[O-])C(=O)[O-].[Na+].[Na+]` [sodium glutamate] was tested, and the “transglutaminase stabilizing effect” value was “has a transglutaminase stabilizing effect”. With `NC(CO)C(=O)O` (stereo not drawn) [serine, 2-amino-3-hydroxypropionic acid] the “transglutaminase stabilizing effect” value was “has a transglutaminase stabilizing effect”. For `N[C@@H](CC(=O)[O-])C(=O)[O-].[Na+].[Na+]` [sodium aspartate], the “transglutaminase stabilizing effect” value was “has a transglutaminase stabilizing effect”. For `Cl.NCCCC[C@H](N)C(=O)O` [lysine hydrochloride, reference compound], the “transglutaminase stabilizing effect” value was “not found”. In the case of `NCC(=O)O` [glycine, 2-aminoacetic acid], the “transglutaminase stabilizing effect” value was “has a transglutaminase stabilizing effect”.

What follows are molecules tested against T1, transglutaminase (assay: not given). Details: conclusion of Experimental Example 4; organic acid salt 10 wt%, 44°C 24 hr.
For `CC(=O)O` [sodium acetate], the stabilization of transglutaminase was “can also stabilize transglutaminase”. In the case of `O=C([O-])[C@H](O)[C@@H](O)[C@H](O)[C@H](O)CO.[Na+]` [sodium gluconate], the stabilization of transglutaminase was “can also stabilize transglutaminase”. With `O=C(O)CC(O)(CC(=O)O)C(=O)O` [sodium citrate] the stabilization of transglutaminase was “can also stabilize transglutaminase”.

Source: EP3770254A1, “LIQUID P[…] TRANSGLUTAMINASE” (AJINOMOTO CO., INC., priority 2018, dated 2019)
